# From patent publication US10441593B2, “Treatment of pain associated with dislocation of endometrium” (PREGLEM S.A., priority 2010, dated 2019)
# Tested on: patients with heavy menstrual bleeding and pain
# Test: Hepatobiliary Disorders and Liver Safety analysis (Example 3)
# Type: in vivo, human
# Method: A double-blinded, randomized, study evaluating the effect of long term oral administration of 5 mg or 10 mg ulipristal in patients with heavy menstrual bleeding and pain. A Hepatobiliary Disorders and Liver Safety analysis was carried out for all patients. This summary table illustrates the increased number of subjects from the 3 treatment groups who had increased levels of AST, ALT and total bilirubin during the study.
# [1] = Ulipristal 5 mg (n = 97), Week 5
# [2] = Ulipristal 5 mg (n = 97), Week 9
# [3] = Ulipristal 5 mg (n = 97), Week 13
# [4] = Ulipristal 5 mg (n = 97), Week 17
# [5] = Ulipristal 10 mg (n = 103), Week 5
# [6] = Ulipristal 10 mg (n = 103), Week 9
# [7] = Ulipristal 10 mg (n = 103), Week 13
# [8] = Ulipristal 10 mg (n = 103), Week 17
smiles,measurement,setting,value
"CC(=O)O[C@]1(C(C)=O)CC[C@H]2[C@@H]3CCC4=CC(=O)CCC4=C3[C@@H](c3ccc(N(C)C)cc3)C[C@@]21C [Ulipristal, 17α-acetoxy-11β-[4-N,N-dimethylamino-phenyl)-19-norpregna-4,9-diene-3,20-dione]",treatment related changes in liver function tests,"5 mg or 10 mg, long term oral administration",no signals of any treatment related changes in liver function tests
same,"ALT High not CS, number (%) of subjects",[1],4 (4.1%)
same,"ALT Low not CS, number (%) of subjects",[1],0
same,"AST High not CS, number (%) of subjects",[1],6 (6.2%)
same,"AST Low not CS, number (%) of subjects",[1],0
same,"Total bilirubin High CS, number (%) of subjects",[1],0
same,"Total bilirubin High not CS, number (%) of subjects",[1],2 (2.1%)
same,"Total bilirubin Low not CS, number (%) of subjects",[1],0
same,"ALT High not CS, number (%) of subjects",[2],0
same,"ALT Low not CS, number (%) of subjects",[2],0
same,"AST High not CS, number (%) of subjects",[2],3 (3.1%)
same,"AST Low not CS, number (%) of subjects",[2],0
same,"Total bilirubin High not CS, number (%) of subjects",[2],3 (3.1%)
same,"Total bilirubin Low not CS, number (%) of subjects",[2],0
same,"ALT High not CS, number (%) of subjects",[3],1 (1.0%)
same,"ALT Low not CS, number (%) of subjects",[3],0
same,"AST High not CS, number (%) of subjects",[3],2 (2.1%)
same,"AST Low not CS, number (%) of subjects",[3],0
same,"Total bilirubin High not CS, number (%) of subjects",[3],3 (3.1%)
same,"Total bilirubin Low not CS, number (%) of subjects",[3],0
same,"ALT High CS, number (%) of subjects",[4],0
same,"ALT High not CS, number (%) of subjects",[4],2 (2.1%)
same,"ALT Low not CS, number (%) of subjects",[4],0
same,"AST High not CS, number (%) of subjects",[4],3 (3.1%)
same,"AST Low not CS, number (%) of subjects",[4],0
same,"Total bilirubin High not CS, number (%) of subjects",[4],2 (2.1%)
same,"Total bilirubin Low not CS, number (%) of subjects",[4],0
same,"subjects with elevations of both AST and ALT above 2×ULN, but <3×ULN for consecutive samples",Ulipristal 5 mg group,1 subject
same,"ALT High not CS, number (%) of subjects",[5],6 (5.8%)
same,"ALT Low not CS, number (%) of subjects",[5],0
same,"AST High not CS, number (%) of subjects",[5],6 (5.8%)
same,"AST Low not CS, number (%) of subjects",[5],0
same,"Total bilirubin High CS, number (%) of subjects",[5],0
same,"Total bilirubin High not CS, number (%) of subjects",[5],3 (2.9%)
same,"Total bilirubin Low not CS, number (%) of subjects",[5],0
same,"ALT High not CS, number (%) of subjects",[6],3 (2.9%)
same,"ALT Low not CS, number (%) of subjects",[6],0
same,"AST High not CS, number (%) of subjects",[6],3 (2.9%)
same,"AST Low not CS, number (%) of subjects",[6],0
same,"Total bilirubin High not CS, number (%) of subjects",[6],4 (3.9%)
same,"Total bilirubin Low not CS, number (%) of subjects",[6],0
same,"ALT High not CS, number (%) of subjects",[7],5 (4.9%)
same,"ALT Low not CS, number (%) of subjects",[7],0
same,"AST High not CS, number (%) of subjects",[7],4 (3.9%)
same,"AST Low not CS, number (%) of subjects",[7],0
same,"Total bilirubin High not CS, number (%) of subjects",[7],6 (5.8%)
same,"Total bilirubin Low not CS, number (%) of subjects",[7],0
same,"ALT High CS, number (%) of subjects",[8],0
same,"ALT High not CS, number (%) of subjects",[8],4 (3.9%)
same,"ALT Low not CS, number (%) of subjects",[8],0
same,"AST High not CS, number (%) of subjects",[8],4 (3.9%)
same,"AST Low not CS, number (%) of subjects",[8],0
same,"Total bilirubin High not CS, number (%) of subjects",[8],2 (1.9%)
same,"Total bilirubin Low not CS, number (%) of subjects",[8],0
same,"subjects with elevations of both AST and ALT above 2×ULN, but <3×ULN for consecutive samples",Ulipristal 10 mg group,2 subjects
same,liver toxicity based on Treatment Emergent Adverse Events (TEAEs),clinical studies,no evidence of liver toxicity
